According to patent US12251422B2, “Compositions and methods for treating neurological and other disorders” (Rush University Medical Center, priority 2018, dated 2025):

Columns and labels:
5×FAD Tg mice = test: Tau phosphorylation in hippocampus of 5×FAD Tg mice; format: in vivo, mouse; conditions: 0.1 mg/kg body wt/2 d intranasal, 30 d
Description: FIG. 22 (A-B). Intranasal delivery of wtTIDM, but not mTIDM, peptide decreases the phosphorylation of tau in the hippocampus of Tg mice. […] B) Bands were scanned and values (P-Tau/Tau) presented as relative to non-Tg control. Results were analyzed by two-sample t-tests.
B6SJL-Tg (APPSwFlLon,PSEN1*M146L*L286V) 6799Vas/J transgenic (5×FAD or termed here as Tg) mice were purchased from Jackson Laboratories (Bar Harbor, ME). […] Briefly, TIDM peptides were dissolved in 5 μl normal saline, mice were hold in supine position and saline was delivered into one nostril using a pipetman.

IL-1β and iNOS = test: mRNA expression of IL-1β and iNOS in BV-2 microglial cells (RT-PCR, real-time PCR); format: cell-based; conditions: 10 μM peptide 1 h
Description: FIG. 4(A-S). Effect of wtTIDM and mTIDM peptides on the induction of NF-κB activation and the expression of proinflammatory molecules in microglial cells. BV-2 microglial cells preincubated with 10 μM wtTIDM/mTIDM peptides for 1 h were stimulated with 1 μM fibrillar Aβ1-42 (A-C), 1 μM MPP+ (D-F), 250 ng/ml LTA (G-I), […] LPS (J-L), 1 μM flagellin (M-O), and 1 μM CpG DNA (P-R) under serum-free condition. After 1 h of stimulation, the activation of NF-κB was monitored in nuclear extracts by EMSA (A, fibrillar Aβ; D, MPP+; G, LTA; J, LPS; M, flagellin, P; CpG DNA). After 4 h of stimulation, the mRNA expression of IL-1β (B, E, H, K, N, & Q) and iNOS (C, F, I, L, O, & R) was monitored by real-time PCR (B-C, fibrillar Aβ; E-F, MPP+; H-I, LTA; K-L, LPS; N-O, flagellin; Q-R, CpG DNA) (n=2 replicates/dose in 3 independent experiments). ap<0.001 vs control; bp<0.001 vs stimuli by two-sample t-tests. […]
FIG. 13 (A-F). […] After 4 h of stimulation, the mRNA expression of IL-1β and iNOS was monitored by RT-PCR (n=2 replicates/condition in 3 independent experiments).
FIG. 14 (A-D). […] A) After 1 h of stimulation, the activation of NF-κB was monitored in nuclear extracts by EMSA. […]
DNase-digested RNA was analyzed by real-time PCR in the AβI-Prism7700 sequence detection system (Applied Biosystems, Foster City, CA) as described earlier (23, 57).

[1] = biological target: T1, interaction between newly-formed cTLR2 and MyD88 (Mus musculus, UniProt Q9QUN7); test: MyD88 immunoprecipitation / c-Myc western blot in BV-2 cells transduced with pLenti-cMyc-cTlr2; format: cell-based; conditions: transduced BV-2 cells, fibrillar Aβ1-42 for 1 h
T1 construct: The cTLR2 (640-784 amino acids) tagged with c-myc was cloned in lenti vector; expressed in transfected cells; host or cells: BV-2 microglial cells transduced with pLenti-cMyc-cTlr2 lentivirions

TNFα and IL-1β = TNFα and IL-1β ELISA in supernatants of WT primary microglia; format: cell-based, mouse; conditions: peptide 1 h, 1 μM fibrillar Aβ1-42 for 18 h
Description: FIG. 16 (A-F). […] Primary microglia isolated from WT (A) and TLR2 (−/−) (B) mice were treated with different concentrations of wtTIDM peptide for 1 h followed by stimulation with 1 μM fibrillar Aβ1-42 under serum-free condition. After 1 h of stimulation, the activation of NF-κB was monitored by EMSA. WT (C & D) and TLR2 (−/−) (E & F) microglia were treated with different concentrations of wtTIDM and mTIDM peptides for 1 h followed by stimulation with 1 μM fibrillar Aβ1-42 under serum-free condition. After 18 h of stimulation, levels of TNFα (C & E) and IL-1β (D & F) were monitored in supernatants by ELISA (n=2 replicates/condition in 3 independent experiments). ap<0.001 vs control; bp<0.001 vs stimuli by two-sample t-tests.

Tg-Tlr2−/− mice = test: Plaques and memory in 5×FAD mice null for Tlr2 (Tg-Tlr2−/−); format: in vivo, mouse; conditions: 0.1 mg/kg body wt/2 d intranasal, 30 d
Description: FIG. 24 (A-H). […] A) Tlr2−/− mice were bred with Tg (5×FAD mice) and representative PCR of Tlr2, App695 and Psen1 transgene DNA expression is shown for 6-month old non-Tg, Tg (5×FAD), Tg-Tlr2−/− (F7), and Tlr2−/− mice. Average body weight (B) and wet brain weight (C) of non-Tg, Tg, Tg-Tlr2−/−, and Tlr2−/− mice. For wet brain weight, the olfactory lobes and brainstem were removed. […] After 30 d of treatment, hippocampal sections were immunolabeled with 6E10 mAb (D). […] Mice were tested for Barnes maze (F, track plot; G, latency; H, number of errors made). Four mice (n=4) were used in each group. NS, not significant by two-sample t-tests.

T1 sequence (Q9QUN7 640-784): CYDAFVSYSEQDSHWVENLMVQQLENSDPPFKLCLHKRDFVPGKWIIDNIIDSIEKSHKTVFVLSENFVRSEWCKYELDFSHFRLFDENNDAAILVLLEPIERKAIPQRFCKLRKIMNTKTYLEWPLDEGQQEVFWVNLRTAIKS

SMILES: CC[C@H](C)[C@H](NC(=O)[C@H](CCCCN)NC(=O)[C@@H](NC(=O)[C@H](CCC(N)=O)NC(=O)[C@H](CCCNC(=N)N)NC(=O)[C@@H](N)CC(=O)O)[C@@H](C)CC)C(=O)N[C@@H](Cc1c[nH]c2ccccc12)C(=O)N[C@@H](Cc1ccccc1)C(=O)N[C@@H](CCC(N)=O)C(=O)N[C@@H](CC(N)=O)C(=O)N[C@@H](CCCNC(=N)N)C(=O)N[C@@H](CCCNC(=N)N)C(=O)N[C@@H](CCSC)C(=O)N[C@@H](CCCCN)C(=O)N[C@@H](Cc1c[nH]c2ccccc12)C(=O)N[C@@H](CCCCN)C(=O)N[C@@H](CCCCN)C(=O)N1CCC[C@H]1C(=O)NCC(=O)N[C@@H](C)C(=O)N[C@@H](Cc1c[nH]cn1)C(=O)N[C@@H](CCC(N)=O)C(=O)N[C@@H](CCCCN)C(=O)O [wtTIDM, drqikiwfqnrrmkwkkPGAHQK]
- phospho-tau in the hippocampus (5×FAD Tg mice): suppression
- total level of tau protein (5×FAD Tg mice): without affecting
- inhibition of expression of proinflammatory molecules (IL-1β, iNOS) induced by LTA (IL-1β and iNOS; 250 ng/ml LTA for 4 h): inhibited
- inhibition of expression of proinflammatory molecules (IL-1β, iNOS) induced by fibrillar Aβ (IL-1β and iNOS; 1 μM fibrillar Aβ1-42 for 4 h): inhibited
- inhibition of interaction between newly-formed cTLR2 and MyD88 [1]: inhibited
- inhibition of fibrillar Aβ1-42-induced production of TNFα and IL-1β in WT microglia (TNFα and IL-1β): inhibited
- reduction of plaque load and improvement of spatial learning and memory in Tg-Tlr2−/− mice (Tg-Tlr2−/− mice): remained unable to do so
